{"source": "paper PMC10349806", "about": "(Nature Communications, 2023)", "tested_on": "PfCRT variant E207M", "experiment": "CQ uptake assay, oocytes expressing E207M", "type": "cell-based, Plasmodium falciparum", "experimental": "Site-directed mutagenesis of PfCRT^Dd2 was performed as described using the megaprimer method with overlap extension[21],[54]. The primer pairs used are listed in Supplementary Table 6. Please note that a codon-optimized and oocyte-adapted version of PfCRT^Dd2 was used[22] (Supplementary Fig. 16). The resulting DNA fragment was cloned into the SP64T expression vector and verified by sequencing.\nOocytes were obtained as described previously. Briefly, adult (>2 years old) female X. laevis frogs (NASCO) were anesthetized in a cooled solution of ethyl 3-amino benzoate methanesulfonate (0.1%, w/v), followed by a surgical removal of parts of the ovary. The ovary lobes were carefully dissected and small pieces of oocytes were incubated in Ca^2+-free ND96 buffer (96 mM NaCl, 2 mM KCl, 1 mM MgCl2 buffered with 5 mM HEPES/NaOH, pH 7.5) supplemented with collagenase D (0.1%, w/v; Roche), BSA (0.5%, w/v), and 9 mm Na2HPO4 at 18 °C for 14-16 h while gentle shaking. After incubation, the oocytes were carefully washed several times with ND96 buffer (96 mM NaCl, 2 mM KCl, 1.8 mM CaCl2, 1 mM MgCl2 buffered with 5 mM HEPES/NaOH, pH 7.5) supplemented with 100 mg l^−1 gentamycin). Defolliculated and healthy-looking stage V-VI oocytes were manually selected for RNA microinjection. The RNA was generated as following: The codon-optimized sequences of PfCRT variants were cloned into the pSP64T expression vector. After vector linearization using the restriction endonucleases BamHI or SalI (New England Biolabs), transcription was performed using the in vitro SP6 mMessage mMachine Kit (Ambion)[34]. The obtained RNA was kept at −80 °C and diluted with nuclease-free water to a concentration of 0.6 μg μl^−1. Precision-bore glass capillary tubes (3.5-inch glass capillaries; Drummond Scientific Co.) were pulled on a vertical puller (P-87 Flaming/Brown micropipette puller, Sutter Instrument Co.), graduated, and placed on a microinjector (Nanoject II Auto-Nanoliter Injector, Drummond Scientific Co.). 50 nl of nuclease-free water alone (control oocytes) or 50 nl of 0.6 μg μl^−1 RNA were injected under stereomicroscopic control. Injected oocytes were incubated for 46–72 h at 18 °C with twice-daily buffer changes before usage in experiments.\nDrug uptake assays were performed as described previously[21],[22],[24],[34]. […] The direction of radio-labeled drug transport is here from the mostly acidic extracellular solution (pH 4.5 or 6.0, as indicated) into the oocyte cytosol (pH ∼ 7.2), which corresponds to the efflux of drug from the acidic digestive vacuole (pH 5.2) into the parasite cytoplasm (pH 7.2). The topology of PfCRT in the oolemma is such that both the N- and C-terminus face the extracellular milieu[3],[22]. In the parasite, the N- and C-terminus face the lumen of the digestive vacuole. CQ uptake kinetics were performed by incubating oocytes in ND96 buffer adjusted to a pH of 4.5, 5.0, 5.5, or 6.0 and supplemented with 50 nM [^3H]CQ and one of 7 different CQ concentrations (10 µM, 50 µM, 100 µM, 200 µM, 300 µM, 400 µM, 500 µM CQ). The reaction was stopped at the 60 min time point, which is in the linear uptake range[22],[34] (Supplementary Fig. 17). For determination of the amount of drug uptake for each oocyte, the reaction medium was removed and the oocytes were washed three times with 2 ml of ice-cold ND96 buffer. Each oocyte was individually transferred to a scintillation vial containing 5% sodium dodecyl sulfate (200 μl) for lysis. The radioactivity of each sample was measured using a liquid scintillation analyzer Tri-Carb 4910 TR (PerkinElmer). Oocytes that were injected with water instead of RNA were analyzed in parallel, representing the uptake of a drug by diffusion and/or endogenous permeation pathways. The resulting value represents the “background“ level of drug accumulation in oocytes (in-depth discussion in[22]). […]", "key": {"[1]": {"conditions": "E207M, 50 µM CQ, 1 h, mean ± SEM"}}, "note": "Values joined by “and” are separate entries in the source; they are usually repeats but may differ in a detail not shown here. Equal values may be shown once.", "data": [{"compound": "CCN(CC)CCCC(C)Nc1ccnc2cc(Cl)ccc12", "note": "(stereo not drawn) [CQ, chloroquine]", "values": [{"measurement": "Activity at pH 4.5", "setting": "[1]", "result": "1.85 ± 0.27", "unit": "pmol h-1 oocyte-1"}, {"measurement": "Activity at pH 6.0", "setting": "[1]", "result": "2.24 ± 0.41", "unit": "pmol h-1 oocyte-1"}, {"measurement": "R-value", "setting": "E207M, CQ transport at pH 4.5 / pH 6.0", "result": "0.85 ± 0.02"}, {"measurement": "E207M transport activity pH 4.5", "setting": "pH 4.5, individual replicates, Fig 6b", "result": "1.39 pmol oocyte-1 h-1 and 1.26 pmol oocyte-1 h-1 and 2.26 pmol oocyte-1 h-1 and 2.48 pmol oocyte-1 h-1"}, {"measurement": "E207M transport activity pH 6.0", "setting": "pH 6.0, individual replicates, Fig 6b", "result": "1.61 pmol oocyte-1 h-1 and 1.40 pmol oocyte-1 h-1 and 2.48 pmol oocyte-1 h-1 and 3.48 pmol oocyte-1 h-1"}, {"measurement": "E207M R-value", "setting": "ratio of activity pH 4.5 / pH 6.0", "result": "0.86 and 0.90 and 0.91 and 0.71"}]}]}
